Laboratory results: patent publication US20230263792A1, “USE OF 2,3,5-SUBSTITUTED THIOPHENE COMPOUND FOR PREVENTING, ALLEVIATION, OR TREATING MASTOCYTOSIS” (PHAROS IBIO CO., LTD, priority 2020, published 2023)

Assays:
[1] = test system: c-kit phosphorylation and downstream signaling (p-STAT5, p-AKT, p-ERK) in HMC-1.2 cell line; assay: Western blot of c-kit phosphorylation and downstream signaling in HMC-1.2; assay type: cell-based; settings: FIG. 6
Experimental: (§1) Specifically, the c-kit D816V mutant Ba/F3 cell line was dispensed at a concentration of 1×10^6 cells/ml, treated with each of the control compounds and PHI-101 at concentrations of 0.1, 1 and 10 μM, and then cultured for 2 hours. Next, lysates of the cells were obtained using lysis buffer (50 mM Tris-HCl pH 7.5, 1% NP40, 1 mM EDTA, 150 mM NaCl, 5 mM, Na3VO4 and 2.5 mM NaF, and a protease inhibitor cocktail). Equal amounts of the cell lysates were electrophoresed using 8% SDS-PAGE gel at 100 V for 1 hour and 30 minutes, and the separated protein was electrically transferred to nitrocellulose membranes. The membranes were blocked with 5% skim milk at room temperature for 30 minutes, and allowed to react with primary antibodies (diluted 1:5,000), including p-c-kit tyrosine 719 (Y719), p-STAT3 tyrosine 705 (Y705) and p-ERK1/2 threonine 202/tyrosine 204 (T202/Y204) at 4° C. for 16 to 20 hours. […] Next, the membranes were washed three times with TBST for 5 minutes each time and treated with a chemiluminescent substrate reagent, and the expression level of the protein was measured by detecting luminescence with an X-ray film in the dark.
The inhibitory activities of control compounds and PHI-101 against c-kit phosphorylation and downstream signaling (p-STAT5, p-AKT, p-ERK) in a mastocytosis cell line were measured, and as the control compounds, imatinib and sunitinib were used. […]

[2] = test system: cleaved PARP and cleaved caspase-3 in HMC-1.2 cell line; assay: Western blot of cleaved PARP and cleaved caspase-3, HMC-1.2; assay type: cell-based; settings: HMC-1.2, 0.1 and 1 μM, controls 1 μM, FIG. 8
Experimental: as §1, with “membranes.” for “membranes. The membranes were blocked with 5% skim milk at room temperature for 30 minutes, and allowed to react with primary antibodies (diluted 1:5,000), including p-c-kit tyrosine 719 (Y719), p-STAT3 tyrosine 705 (Y705) and p-ERK1/2 threonine 202/tyrosine 204 (T202/Y204) at 4° C. for 16 to 20 hours.”
A mastocytosis cell line was treated with PHI-101, and the levels of cleaved PARP and cleaved caspase-3, which are apoptosis markers, were analyzed. […]
Specifically, the apoptotic effect of PHI-101 against the HMC-1.2 cell line was analyzed in the same manner as in Example 1-2, except that the HMC-1.2 cell line was treated with each of the control compounds at a concentration of 1 μM and PHI-101 at concentrations of 0.1 and 1 μM, and that cleaved PARP and cleaved caspase-3, each diluted at 1:5,000, were used as primary antibodies.

[3] = test system: HMC-1.2 cells subcutaneous tumor; assay: Tumor growth inhibition in mastocytosis mouse model with HMC-1.2 cell line; assay type: in vivo, NOD SCID female mice
Experimental: As mice, 6-8-week-old NOD SCID female mice (18 to 22 g) (GemPharmatech Co., Ltd.) were prepared. Mice were acclimatized for 7 days before use in the experiment, and mice with abnormal health were excluded from the experiment. Mice were bred in a cage (300×180×150 mm) at a 22±3° C. and a relative humidity of 40% to 70% with a 12-hr light/12-hr dark cycle. Mice were allowed access to sterilized dry granular food (Beijing Keaoxieli Feed Co., Ltd., Beijing, China) and water ad libitum for the entire experimental period except for the period specified in the protocol.
50 ml of HMC-1.2 cells suspension-cultured in a 75T flask were placed in a conical tube and centrifuged at 1,200 rpm for 2 minutes, centrifuged with DPBS (Dulbecco's Phosphate-Buffered Saline, Welgene) at 1,200 rpm for 2 minutes, washed, and then suspended in RPMI1640 (Welgene) without antibiotics and fetal bovine serum (FBS).
Thereafter, when the average tumor volume reached 150 to 200 mm^3, 4 mice were assigned to each group so that the average tumor volume at each group and treatment time was the same between the groups.
In addition, the width and length of the tumor were measured using a caliper at 3-day intervals, and the tumor volume was calculated using the following equation.
(V: tumor volume, W: tumor width, and L: tumor length)
In addition, the mice were sacrificed 3 weeks after the start of oral administration of each drug and the tumor weight was measured using a digital scale. For each data, one-way ANOVA was used to test the significance of each group.

[4] = 7 mg/kg oral once daily for 3 weeks
[5] = 20 mg/kg oral once daily for 3 weeks
[6] = 40 mg/kg oral once daily for 3 weeks
[7] = 80 mg/kg oral once daily for 3 weeks

NC(=O)Nc1cc(C#Cc2cccc(F)c2)sc1C(=O)N[C@H]1CCCNC1 [PHI-101]
downstream signaling inhibition ([1]; 0.1 μM): strongly inhibited downstream signaling
c-kit phosphorylation and downstream signaling ([1]; 0.01, 0.1 and 1 μM): decreased c-kit phosphorylation and downstream signaling in a concentration-dependent manner
levels of cleaved PARP and cleaved caspase-3 [2]: higher than those in the HMC-1.2 cell lines treated with the control compounds
Tumor growth inhibition (TGI) (%) Timor volume [3, 4]: 30.2%
Tumor growth inhibition (TGI) (%) Tumor weight [3, 4]: 32.7%
Tumor growth inhibition (TGI) (%) Timor volume [3, 5]: 43.6%
Tumor growth inhibition (TGI) (%) Tumor weight [3, 5]: 51.6%
growth of mastocytosis cells in mouse model ([3]; 40 mg/kg or more, versus control compounds, FIGS. 9 to 12): significantly inhibited compared to that in the group treated with each control compound
Tumor growth inhibition (TGI) (%) Timor volume [3, 6]: 68.4%
Tumor growth inhibition (TGI) (%) Tumor weight [3, 6]: 68.3%
Tumor growth inhibition (TGI) (%) Timor volume [3, 7]: 78.5%
Tumor growth inhibition (TGI) (%) Tumor weight [3, 7]: 82.7%
